# Laboratory results reported in US20050063903A1, “Combined use of cruciferous indoles and chelators for the treatment of papilloma virus-related conditions” (priority 2003, published 2005).
# Experiments:
# [1] = log cumulative stability constant; cited from earlier work
# [2] = log cumulative stability constant; cited from earlier work; remark: listed apart in the source
# Vaccinia virus = conditions: monkey kidney cells; cited from earlier work
# [3] = log cumulative stability constant; cited from earlier work; remark: listed apart in the source
# CaSki cells = experiment: MTS mitochondrial function assay, loss of cell viability, 72 hour cultures; type: cell-based, human; conditions: for Pa Effect Alone: Pa 2.5 mM; for SY Effect Alone: SY 150 μM
# Description: (§1) In vitro cell culture experiments were performed to investigate the induction of apoptosis by combinations of Diindolylmethane (DIM), Silybin (SY), Picolinic Acid (PA), Sodium Butyrate (BA), and Gallium Nitrate (Ga) in relevant cervical cancer cells. The cell lines CaSki (containing multiple copies of integrated HPV16 DNA), C33A (HPV negative with mutant p53), were utilized. Cells were maintained and assays for apoptosis induction performed as previously described (Chen D Z, Qi M, Auborn K J and Carter T H, Indole-3-carbinol and diindolylmethane induce apoptosis of human cervical cancer cells and in murine HPV 16-transgenic preneoplastic cervical epithelium. J Nutr. 2001 December;131(12):3294-302). Novel combinations of DIM and various Iron/Zinc chelators were tested to assess and document greater than additive (synergistic) apoptosis-related activity in controlled 72 hour cultures.
# (§2) The primary assay for apoptosis-related loss of cell viability was the mitochondrial function assay [reduction of 3-(4,5-dimethylthiazol-2-yl)-5-(3-carboxymethoxyphenyl)-2-(4-sulfophenyl)-2H-tetrazolium (MTS)] using a MTS kit (Promega, Madison, Wis.). A minimum of 4 replicate wells per condition were studied and absorbance at […] of the solution in individual wells was determined with a multi-well plate reader. Data were analyzed by plotting the mean and SD of cell viability versus concentration of DIM, Iron/Zinc chelator or other growth inhibitors.
# (§3) Using doses for each agent at or below the ID50 levels, synergistic, apoptosis-related, reductions in cell viability were documented for both combinations of DIM and Iron disrupting compounds and for combinations of DIM and Zinc disrupting compounds. Results showing percent reductions of cell viability using the MTS assay for individual agents, combined effects, and extent of synergism are summarized in the following tables and FIGS. 1-3.
# [4] = cited from earlier work
# [5] = test system: papillomavirus altered cervical cancer cell lines; conditions: cell culture; cited from earlier work
# C33A cells = experiment: MTS mitochondrial function assay, loss of cell viability, 72 hour cultures; type: cell-based, human
# Description: as §1, §2, §3
# tumor tissue = experiment: Ga-67 SPECT scan in patients with oropharyngeal squamous cell cancer; type: in vivo, human; conditions: 8 millicuries intravenous
# Source text: In order to reduce radiation-related side effects use of both conventional radiation and Cyberknife radiosurgery (Accuray, Sunnyvale, Calif.) were employed together with intravenous and oral DIM and intravenous Ga-67 isotope and Gallium nitrate. This combined approach allowed reduction of the total radiation dose from 7000 cGy to 3500 cGy. On the first treatment day the patient underwent Computerized Tomography (CT) with intravenous omnipaque to enhance 3 dimensional definition of the tumor mass. This was followed by a Ga-67 SPECT scan involving administration of 8 millicuries of Gallium-67 Citrate isotope (Cardinal Health, Denver, Colo.).
# On the first treatment day the patient, weighing 50 kg, underwent Computerized Tomography (CT) with intravenous omnipaque to enhance the 3 dimensional definition of the recurrent tumor mass. This was followed by a Ga-67 SPECT scan involving administration of 8 millicuries of Gallium-67 isotope (Cardinal Health, Denver, Colo.).
# cervical dysplasia = conditions: treated for 3 months; cited from earlier work
# [6] = test system: virus infected skin cells (HIV-1, HSV-2); conditions: cited from earlier work
compound,measurement,setting,value
"c1ccc(-c2ccccn2)nc1 [BIP, 2,2′-bypryidyl]",Logβ-Ga^II,[1],7.7
same,Logβ-Zn^II,[2],13.2
same,Concentrations shown to inhibit Vaccinia virus replication and ribonucleotide reductase,Vaccinia virus,60 to 80 µM
same,Logβ-Fe^III,[3],16.3
"CCCC(=O)[O-].[Na+] [BU, butyric acid sodium salt]",BU Effect Alone,"CaSki cells; BU 150 μM, Table IV",−15%
"CC(=O)N(O)CCCCCNC(=O)CCC(=O)N(O)CCCCCNC(=O)CCC(=O)N(O)CCCCCN [DFO, Desferrioxamine]",Logβ-Ga^II,[1],27.6
same,Logβ-Zn^II,[2],11.1
same,Lipid Solubility,[4],Low
same,Logβ-Fe^III,[3],30.5
"c1ccc2c(Cc3c[nH]c4ccccc34)c[nH]c2c1 [DIM, 3,3′-diindolylmethane]",Concentration required for activity (markers of apoptosis),[5],50 µM
same,DIM Effect Alone,"C33A cells; DIM 25 μM, reduction of cell viability",−8%
same,DIM Effect Alone,"CaSki cells; DIM 50 μM, Table II",−26%
same,DIM Effect Alone,"CaSki cells; DIM 75 μM, Table II",−46%
same,DIM Effect Alone,"CaSki cells; DIM 75 uM, Table III",−19%
same,DIM Effect Alone,"CaSki cells; DIM 75 μM, Table IV",−46%
same,DIM Alone 75 uM,"CaSki cells; DIM 75 uM, Table V",−19%
same,DIM Effect Alone,"CaSki cells; DIM 100 uM, Table III",−21%
"O=C(O)CN(CCN(CC(=O)O)CC(=O)O)CC(=O)O [EDTA, ethylenediaminetetraacetic acid]",Logβ-Ga^II,[1],21.0
same,Logβ-Zn^II,[2],16.5
same,Logβ-Fe^III,[3],25.1
O=C([O-])CC(O)(CC(=O)[O-])C(=O)[O-].[67Ga+3] [Gallium-67 Citrate],Uptake of Gallium by the tumor tissue in the scan,tumor tissue,preferential uptake
"OCc1c[nH]c2ccccc12 [I3C, indole-3-carbinol]",Women with partial improvement,cervical dysplasia,about 50%
"Cc1c(O)c(=O)ccn1C [L1, 1,2-Dimethyl-3-hydroxypyrid-4-one]",Logβ-Ga^II,[1],32.6
same,Logβ-Zn^II,[2],13.5
same,Lipid Solubility,[4],Moderate
same,Logβ-Fe^III,[3],37.2
"O=C(O)c1ccccn1 [Picolinic acid, pyridine-2-carboxylic acid]",Concentration required in cell culture when used alone,"[6]; U.S. Pat. No. 6,410,570",3 mM
same,Concentration required for slowing of growth and diminished viability,[6]; virus infected skin cells,"3,000 micromolar"
same,Logβ-Zn^II,[2],12.9
same,Lipid Solubility,[4],High
same,Logβ-Fe^III,[3],12.8
same,Pa Effect Alone,CaSki cells; Table III line with DIM 75 uM,−13%
same,Pa Effect Alone,CaSki cells; Table III line with DIM 100 uM,−13%
"COc1cc(C2Oc3cc([C@H]4Oc5cc(O)cc(O)c5C(=O)[C@@H]4O)ccc3OC2CO)ccc1O (some centres unmarked) [Silybin, 3,5,7,-trihydroxy-2-[3-(4-hydroxy-3-methoxyphenil)-2-hydroxymethyl-1,4-benxodioxan-6-il]-chronan-4-one]",Logβ-Fe^III,[3],41.5
same,SY Effect Alone,C33A cells; SY 150 μM,−54%
same,SY Effect Alone,CaSki cells; Table II line with DIM 50 μM,−4%
same,SY Effect Alone,CaSki cells; Table II line with DIM 75 μM,−8%
same,Sy Alone 150 uM,"CaSki cells; Sy 150 uM, Table V",−5%
